Assay results reported in patent publication US20220340597A1, “HEXAHYDRO-1H-PYRAZINO[1,2-A]PYRAZINE COMPOUNDS FOR THE TREATMENT OF AUTOIMMUNE DISEASE” (Hoffmann-La Roche Inc., priority 2019, published 2022).

target: T1, human TLR9 (Homo sapiens, UniProt Q9NR96); test: HEK293-Blue-hTLR-9 cells assay; type: cell-based; details: HEK293-Blue-hTLR9 cells, ODN2006 stimulation, 20 hrs, SEAP reporter; read-out: HEK/hTLR9 IC50
T1 construct: host or cells: HEK293 (HEK-Blue hTLR9)
T1 sequence (Q9NR96 26-1032): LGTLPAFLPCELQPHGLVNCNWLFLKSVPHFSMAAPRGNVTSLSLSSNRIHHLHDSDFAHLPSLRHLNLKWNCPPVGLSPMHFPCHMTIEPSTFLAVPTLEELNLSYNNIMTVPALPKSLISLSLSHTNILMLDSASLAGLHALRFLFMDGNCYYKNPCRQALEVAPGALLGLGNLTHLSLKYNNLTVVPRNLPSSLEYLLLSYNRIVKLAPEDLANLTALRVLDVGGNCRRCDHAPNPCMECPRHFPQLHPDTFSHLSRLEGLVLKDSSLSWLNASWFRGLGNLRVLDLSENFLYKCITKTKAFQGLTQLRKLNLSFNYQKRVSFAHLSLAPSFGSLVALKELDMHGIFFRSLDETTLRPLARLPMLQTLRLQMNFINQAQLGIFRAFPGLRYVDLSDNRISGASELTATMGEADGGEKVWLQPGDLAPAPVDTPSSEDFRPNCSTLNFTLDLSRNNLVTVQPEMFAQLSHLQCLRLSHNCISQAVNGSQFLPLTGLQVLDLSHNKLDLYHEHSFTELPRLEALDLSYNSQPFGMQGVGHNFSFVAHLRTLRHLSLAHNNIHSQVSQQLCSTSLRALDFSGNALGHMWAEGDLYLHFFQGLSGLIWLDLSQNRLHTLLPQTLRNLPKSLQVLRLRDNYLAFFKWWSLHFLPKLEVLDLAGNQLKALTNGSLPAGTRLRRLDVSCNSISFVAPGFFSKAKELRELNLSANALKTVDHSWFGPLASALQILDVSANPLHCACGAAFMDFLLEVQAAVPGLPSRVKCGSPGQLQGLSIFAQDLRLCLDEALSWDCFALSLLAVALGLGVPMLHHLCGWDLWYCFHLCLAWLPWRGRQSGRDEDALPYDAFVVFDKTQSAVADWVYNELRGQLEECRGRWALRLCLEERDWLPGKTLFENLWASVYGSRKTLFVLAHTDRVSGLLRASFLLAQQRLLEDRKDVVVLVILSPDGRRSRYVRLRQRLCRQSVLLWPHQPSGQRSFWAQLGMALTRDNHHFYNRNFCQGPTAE

Row | IC50 | SMILES
1 | 41 nM | CO[C@@H]1CN(c2ccc(CCN3CCN4[C@@H](C3)CN(c3ccc(C#N)n5nccc35)C[C@H]4C)cc2)C[C@H]1N [Example 68, 4-[(4R,9aS)-8-[2-[4-[(3R,4R)-3-amino-4-methoxy-pyrrolidin-1-yl]phenyl]ethyl]-4-methyl-3,4,6,7,9,9a-hexahydro-1H-pyrazino[1,2-a]pyrazin-2-yl]pyrazolo[1,5-a]pyridine-7-carbonitrile]
2 | 142 nM | C[C@@H]1CN(c2ccc(C#N)n3ncc(F)c23)C[C@@H]2CN(Cc3ccc4c(c3)CNCC4)CCN21 [Example 69, 4-[(4R,9aS)-4-methyl-8-(1,2,3,4-tetrahydroisoquinolin-7-ylmethyl)-3,4,6,7,9,9a-hexahydro-1H-pyrazino[1,2-a]pyrazin-2-yl]-3-fluoro-pyrazolo[1,5-a]pyridine-7-carbonitrile]
3 | 97 nM | C[C@@H]1CN(c2ccc(C#N)c3ncccc23)C[C@@H]2CN(Cc3cccc4c3CCNC4)CCN21 [Example 70, 5-[(4R,9aS)-4-methyl-8-(1,2,3,4-tetrahydroisoquinolin-5-ylmethyl)-3,4,6,7,9,9a-hexahydro-1H-pyrazino[1,2-a]pyrazin-2-yl]quinoline-8-carbonitrile]
4 | 79 nM | C[C@@H]1CN(c2ccc(C#N)c3ncccc23)C[C@@H]2CN(Cc3cccc4c3CNCC4)CCN21 [Example 71, 5-[(4R,9aS)-4-methyl-8-(1,2,3,4-tetrahydroisoquinolin-8-ylmethyl)-3,4,6,7,9,9a-hexahydro-1H-pyrazino[1,2-a]pyrazin-2-yl]quinoline-8-carbonitrile]
5 | 89 nM | C[C@@H]1CN(c2ccc(C#N)c3ncccc23)C[C@@H]2CN(Cc3cccc4c3CNC4)CCN21 [Example 72, 5-[(4R,9aS)-8-(isoindolin-4-ylmethyl)-4-methyl-3,4,6,7,9,9a-hexahydro-1H-pyrazino[1,2-a]pyrazin-2-yl]quinoline-8-carbonitrile]
6 | < 32 nM | Cc1cc(N2CCN3[C@@H](C2)CN(c2ccc(C#N)c4ncccc24)C[C@H]3C)cc(N2CC(C)(N)C2)n1 [Example 73, 5-[(4R,9aS)-8-[2-(3-amino-3-methyl-azetidin-1-yl)-6-methyl-4-pyridyl]-4-methyl-3,4,6,7,9,9a-hexahydro-1H-pyrazino[1,2-a]pyrazin-2-yl]quinoline-8-carbonitrile]
7 | 48 nM | C[C@@H]1CN(c2ccc(C#N)n3ncc(F)c23)C[C@@H]2CN(CCc3ccc(N4CC(C)(N)C4)nc3)CCN21 [Example 74, 4-[(4R,9aS)-8-[2-[6-(3-amino-3-methyl-azetidin-1-yl)-3-pyridyl]ethyl]-4-methyl-3,4,6,7,9,9a-hexahydro-1H-pyrazino[1,2-a]pyrazin-2-yl]-3-fluoro-pyrazolo[1,5-a]pyridine-7-carbonitrile]
8 | 65 nM | C[C@@H]1CN(c2ccc(C#N)n3ncc(F)c23)C[C@@H]2CN(CCc3ccc(N4C[C@@H](N)[C@@H](F)C4)nc3)CCN21 [Example 75, 4-[(4R,9aS)-8-[2-[6-[(3R,4S)-3-amino-4-fluoro-pyrrolidin-1-yl]-3-pyridyl]ethyl]-4-methyl-3,4,6,7,9,9a-hexahydro-1H-pyrazino[1,2-a]pyrazin-2-yl]-3-fluoro-pyrazolo[1,5-a]pyridine-7-carbonitrile]
9 | 50 nM | Cc1nc(N2CC(C)(N)C2)ccc1CN1CCN2[C@@H](C1)CN(c1ccc(C#N)c3ncccc13)C[C@H]2C [Example 76, 5-[(4R,9aS)-8-[[6-(3-amino-3-methyl-azetidin-1-yl)-2-methyl-3-pyridyl]methyl]-4-methyl-3,4,6,7,9,9a-hexahydro-1H-pyrazino[1,2-a]pyrazin-2-yl]quinoline-8-carbonitrile]
10 | 44 nM | [2H]c1ccc2c(N3C[C@@H]4CN(CCc5ccc(N6C[C@H]7NCCO[C@@H]7C6)nc5)CCN4[C@H](C)C3)ccc(C#N)c2n1 [Example 77, 5-[(4R,9aS)-8-[2-[6-[(4aR,7aR)-3,4,4a,5,7,7a-hexahydro-2H-pyrrolo[3,4-b][1,4]oxazin-6-yl]-3-pyridyl]ethyl]-4-methyl-3,4,6,7,9,9a-hexahydro-1H-pyrazino[1,2-a]pyrazin-2-yl]-2-deuterio-quinoline-8-carbonitrile]
11 | < 32 nM | [2H]c1ccc2c(N3C[C@@H]4CN(Cc5ccc(N6CCNCC6)nc5)CCN4[C@H](C)C3)ccc(C#N)c2n1 [Example 78, 5-[(4R,9aS)-4-methyl-8-[(6-piperazin-1-yl-3-pyridyl)methyl]-3,4,6,7,9,9a-hexahydro-1H-pyrazino[1,2-a]pyrazin-2-yl]-2-deuterio-quinoline-8-carbonitrile]
12 | 46 nM | [2H]c1ccc2c(N3C[C@@H]4CN(Cc5ccc(N6CC(C)(N)C6)nc5C)CCN4[C@H](C)C3)ccc(C#N)c2n1 [Example 79, 5-[(4R,9aS)-8-[[6-(3-amino-3-methyl-azetidin-1-yl)-2-methyl-3-pyridyl]methyl]-4-methyl-3,4,6,7,9,9a-hexahydro-1H-pyrazino[1,2-a]pyrazin-2-yl]-2-deuterio-quinoline-8-carbonitrile]
13 | 154 nM | [2H]c1ccc2c(N3C[C@@H]4CN(c5ncc(C(=O)N6CC7(CN(C)C7)C6)cc5C)CCN4[C@H](C)C3)ccc(C#N)c2n1 [Example 102, 5-[(4R,9aR)-4-methyl-8-[3-methyl-5-(6-methyl-2,6-diazaspiro[3.3]heptane-2-carbonyl)-2-pyridyl]-3,4,6,7,9,9a-hexahydro-1H-pyrazino[1,2-a]pyrazin-2-yl]-2-deuterio-quinoline-8-carbonitrile]
14 | 87 nM | [2H]c1ccc2c(N3C[C@@H]4CN(c5ncc(C(=O)N6CC7(CN(C)C7)C6)cc5C)CCN4[C@@H](C)C3)ccc(C#N)c2n1 [Example 103, 5-[(4S,9aR)-4-methyl-8-[3-methyl-5-(6-methyl-2,6-diazaspiro[3.3]heptane-2-carbonyl)-2-pyridyl]-3,4,6,7,9,9a-hexahydro-1H-pyrazino[1,2-a]pyrazin-2-yl]-2-deuterio-quinoline-8-carbonitrile]
15 | < 32 nM | C[C@@H]1CN(c2ccc(C#N)c3ncccc23)C[C@@H]2CN(c3ccnc(N4CC[C@@](C)(N)C4)c3)CCN21 [Example 105, 5-[(4R,9aS)-8-[2-[(3R)-3-amino-3-methyl-pyrrolidin-1-yl]-4-pyridyl]-4-methyl-3,4,6,7,9,9a-hexahydro-1H-pyrazino[1,2-a]pyrazin-2-yl]quinoline-8-carbonitrile]
16 | 128 nM | [2H]c1ccc2c(N3C[C@@H]4CN(c5ccc([C@@H]6CNCCO6)cc5)CCN4[C@@H](C)C3)ccc(C#N)c2n1 [Example 106, 5-[(4S,9aS)-4-methyl-8-[4-[(2R)-morpholin-2-yl]phenyl]-3,4,6,7,9,9a-hexahydro-1H-pyrazino[1,2-a]pyrazin-2-yl]-2-deuterio-quinoline-8-carbonitrile]
17 | 146 nM | [2H]c1ccc2c(N3C[C@@H]4CN(c5ccc([C@H]6CNCCO6)cc5)CCN4[C@@H](C)C3)ccc(C#N)c2n1 [Example 107, 5-[(4S,9aS)-4-methyl-8-[4-[(2S)-morpholin-2-yl]phenyl]-3,4,6,7,9,9a-hexahydro-1H-pyrazino[1,2-a]pyrazin-2-yl]-2-deuterio-quinoline-8-carbonitrile]

Row | SMILES | IC50
18 | [2H]c1ccc2c(N3C[C@@H]4CN(c5ncc(N6CC7CC(C6)N7)cc5C)CCN4[C@@H](C)C3)ccc(C#N)c2n1 [Example 108, 5-[(4S,9aR)-8-[5-(3,6-diazabicyclo[3.1.1]heptan-3-yl)-3-methyl-2-pyridyl]-4-methyl-3,4,6,7,9,9a-hexahydro-1H-pyrazino[1,2-a]pyrazin-2-yl]-2-deuterio-quinoline-8-carbonitrile] | 98 nM
